# In PubChem BioAssay AID1645848:
# Details: buffer; pH 7.4; 6.0 h; 150.0 µM
row,Compound,solubility kinetic
1,CCc1c(C)nc2c(-c3cnn(-c4cc(CO)ccn4)c3)c[nH]n2c1=O,10.1 µg/mL
2,NC(=O)C1CCN(c2nc(-c3ccccc3)cs2)CC1,> 42 µg/mL
3,NC(=O)COc1cccc(C2CC(=O)Nc3nc(N4CCCCC4)sc32)c1 (configuration not stated),> 57 µg/mL
4,CC(C)n1cc(-c2ccc(Oc3ccccc3)cc2)c2c(N)ncnc21,< 1 µg/mL
5,CCCN(CCC)CCc1cccc2c1CC(=O)N2,23.2 µg/mL
6,O=C(O)c1ccc(Nc2nc(-c3cc4ccccc4oc3=O)cs2)cc1O,11.7 µg/mL
7,Clc1ccccc1CSc1nc2ncc(Br)cc2[nH]1,< 1 µg/mL
8,Cc1cc(C)nc(N2CCCC(C(=O)NCCc3ccc(F)cc3)C2)n1 (configuration not stated),2.77 µg/mL
9,CC(=O)Nc1ccc(CN2CCc3nc(C(C)C)nc(-c4ccc(Cl)cc4)c3CC2)cc1,33.1 µg/mL
10,Cc1cc(C)c(CNC(=O)c2nc(-c3ccc(F)cc3)cc3c2ccn3C(C)C)c(=O)[nH]1,< 1 µg/mL
11,Oc1ccc(CNc2ccccc2F)c2cccnc12,4.4 µg/mL
12,COc1cc2ncnc(Nc3ccc(Oc4ccccc4)cc3)c2cc1OC,< 1 µg/mL
13,CC1(C)C(=O)NC2=C1C(=O)C(=O)c1ccccc12,> 36 µg/mL
14,CC(=O)N1CCc2cc(-c3nc(NC(=O)Cc4ccc5c(c4)OCO5)sc3C)ccc21,< 1 µg/mL
15,CN1CC(CNC(=O)OCc2ccccc2)C[C@H]2c3cccc4c3c(cn4C)CC21 (some centres not stated),38.4 µg/mL
16,COc1ccnc(NC(=S)N2CCN(c3cccc(C(F)(F)F)n3)CC2)c1,< 1 µg/mL
17,FC(F)(F)c1cccc(N2CCN(C(=S)Nc3ccccn3)CC2)c1,13.4 µg/mL
18,Cn1ncnc1[C@H]1c2n[nH]c(=O)c3cc(F)cc(c23)N[C@@H]1c1ccc(F)cc1,> 38 µg/mL
19,Cc1c(CN(C)c2cc(C3CC(O)C3)nc(N)n2)[nH]c2ccccc12 (configuration not stated),> 50 µg/mL
20,COc1ccc(-n2nc(C3CCCN(C(=O)Cc4ccc(F)cc4)C3)[nH]c2=O)cc1 (configuration not stated),> 61 µg/mL
21,Cc1cc(NS(=O)(=O)c2ccc(NCCc3ccc(Cl)c(Cl)c3)cc2)no1,11.4 µg/mL
22,Cc1nc(Nc2n[nH]c3c2CN(C(=O)N[C@H](CN(C)C)c2ccccc2)C3(C)C)c2sccc2n1,> 72 µg/mL
23,Cc1cccc(-n2cnc3cc(C(=O)N4CCCCC4)ccc32)c1,> 47 µg/mL
24,O=C(COC(=O)CCC(=O)c1cccs1)NCc1ccco1,> 47 µg/mL

row,Compound,solubility kinetic
1,Cc1ccc2oc3c(c(=O)c2c1)C(c1cccc(O)c1)N(CCCN1CCOCC1)C3=O (configuration not stated),> 64 µg/mL
2,CCc1ccc2oc(=O)cc(CN3CCN(c4ccccc4F)CC3)c2c1,< 1 µg/mL
3,COCCNC(=O)c1ccc(-c2ccc(N3CCCCC3)nc2)cc1,4.58 µg/mL
4,Cc1nc([C@](C)(O)CO)sc1-c1cnc(N)c(O[C@H](C)c2cc(F)ccc2-n2nccn2)c1,37.3 µg/mL
5,COc1ccccc1C(=O)Nc1nnc(SCc2cc(=O)c3ccccc3[nH]2)s1,< 1 µg/mL
6,Fc1cc(Nc2nc(-c3ccncc3)nc3ccccc23)ccc1-c1cn[nH]c1,< 1 µg/mL
7,COC(=O)CNC(=O)c1nc(-c2ccc([S+](C)(=O)[O-])cc2)c2ccccn12,2.27 µg/mL
8,CC(=O)Nc1ccc(S(=O)(=O)Nc2nccs2)cc1,> 44 µg/mL
9,Cn1nc(-c2ccccc2F)c2cc(C(=O)Nc3cc(F)ccc3F)sc21,< 1 µg/mL
10,Fc1ccc(CNc2nc(-c3ccncc3)nc3ccccc23)cc1F,< 1 µg/mL
11,CCOc1ccc(NC(=O)c2cccc(-n3cccc3)c2)cc1S(=O)(=O)N1CCOCC1,3 µg/mL
12,CCN(CCCOc1ccc2c(Nc3cc(CC(=O)Nc4cccc(F)c4)[nH]n3)ncnc2c1)CCOP(=O)(O)O,> 87 µg/mL
13,Cc1cccc2nc(-c3cccnc3)c(Nc3ccc(C(C)C)cc3)n12,< 1 µg/mL
14,O=C1Nc2ccccc2/C1=C\c1cc(Br)c(O)c(Br)c1,> 58 µg/mL
15,Cn1cc(S(=O)(=O)N2CCOCC2)cc1C(=O)Nc1ccc(Cl)c(C(F)(F)F)c1,< 1 µg/mL
16,N#Cc1nc(-c2cccc3ccccc23)oc1NC1COC1,< 1 µg/mL
17,NC(=O)C1CCN(c2ncc(-c3cccc(N4CCCCC4)c3)s2)CC1,32.9 µg/mL
18,FC(F)(F)Oc1cccc(Nc2nc(-c3ccncc3)nc3ccccc23)c1,< 1 µg/mL
19,CS(=O)(=O)N1CCN(c2nc(-c3ccc(Br)cc3)cs2)CC1,< 1 µg/mL
20,Cc1cccc(S(=O)(=O)c2cn(Cc3ccccc3)c3cc(N4CCCC(C)C4)c(F)cc3c2=O)c1 (configuration not stated),< 1 µg/mL
21,COc1ccc(-c2csc(NC(=O)c3ccncc3NS(=O)(=O)c3ccc(C)cc3)n2)cc1,54.8 µg/mL
22,CCc1ccc(NC(=O)c2[nH]c(C)c(C(C)=O)c2C)cc1S(=O)(=O)Nc1ccc(Br)cc1,7.72 µg/mL
23,N#Cc1c(NC(=O)c2cccc3ccccc23)sc2c1CCCC2,< 1 µg/mL
24,COc1ccccc1C(=O)N1CCc2cc(-c3nc(NC(=O)Cc4ccc5c(c4)OCO5)sc3C)ccc21,< 1 µg/mL

row,Compound,solubility kinetic
1,COc1cc2c(cc1OC)C(C[C@H]1CN(S(=O)(=O)c3cccc(C#N)c3)CC[C@H]1CC(=O)O)=NCC2,> 76 µg/mL
2,O=S(=O)(Nc1ccccc1N1CCCCC1)c1ccc(Cl)s1,3.68 µg/mL
3,Cc1cnc(-c2ccccc2C(F)F)nc1NCc1ccc(-n2ccnn2)cc1,< 1 µg/mL
4,CCOC(=O)c1ccc(NC2CCCCC2)c(N)c1,31 µg/mL
5,CCn1nc(C2CCN(C(=O)CCO)CC2)nc1-c1cnc(N)c(-c2nnc(C(C)(C)C)o2)n1,> 69 µg/mL
6,COc1cc(C(=O)NC2CCCc3c2[nH]c2c(Cl)cccc32)cc(OC)c1OC (configuration not stated),< 1 µg/mL
7,NC(=O)C1CCN(c2cc(-c3ccc4c(c3)OCCCO4)ncn2)CC1,> 52 µg/mL
8,Cn1cc2c3c(cccc31)CN(C(=O)c1ccc(F)c(Cl)c1)CC2,< 1 µg/mL
9,Cc1cccc(-c2noc([C@@H]3Cc4nc[nH]c4CN3)n2)c1,18.3 µg/mL
10,NC(=O)c1cnc(N[C@@H]2CCCC[C@@H]2N)nc1Nc1cccc(-n2nccn2)c1,> 39 µg/mL
11,O=C(Nc1cc(C(F)(F)F)ccc1N1CCOCC1)c1n[nH]c(=O)c2ccccc12,< 1 µg/mL
12,Cc1csc2nc(-c3cccc(NC(=O)c4ccccc4Cl)c3)cn12,< 1 µg/mL
13,Cc1cnc(-c2ccccc2C2CC2)nc1NCc1ccc(-c2cccnc2)cc1,< 1 µg/mL
14,Cc1cc(F)c(C(=O)Nc2cccc(-c3nncn3C(C)C)n2)cc1-n1cnc(C2CC2)c1,49.8 µg/mL
15,COc1ccc(-c2csc(N3CCC(C(N)=O)CC3)n2)cc1OC,17.5 µg/mL
16,Nc1cccc(CNc2ccc(S(=O)(=O)Nc3nccs3)cc2)c1O,47.2 µg/mL
17,COc1cc(OC)cc(-c2csc(N3CCC(C(N)=O)CC3)n2)c1,> 51 µg/mL
18,CCCC1=Nc2cc(C(=O)NC3CCCC3)ccc2Sc2ccc(C)cc21,< 1 µg/mL
19,Cc1ccccc1C(=O)N1CCc2cc(-c3cccc(NC(=O)Cc4ccc5c(c4)OCO5)c3)ccc21,< 1 µg/mL
20,CCOC(=O)c1[nH]c(C)c(CCC(=O)N2CCN(c3cc(Cl)ccc3C)CC2)c1C,2.74 µg/mL
21,COCCn1ccc2c(C3=CCOCC3)nc(-c3ccc4c(c3)CNC4=O)cc21,> 86 µg/mL
22,Cn1cc(Br)c(C2N=C(Nc3nc4ccccc4o3)NC3=C2C(=O)CCC3)n1 (configuration not stated),24.7 µg/mL
23,O=S(=O)(c1ccc2ccccc2c1)N1CCN(c2nc(-c3cccs3)nc3ccccc23)CC1,< 1 µg/mL
24,CCCN1CNc2c(c(=O)[nH]c(=S)n2Cc2ccc(OC)c(OC)c2)C1,> 56 µg/mL
